Results taken from patent publication US6589976B1, “Utilizing spirocyclic phenyl keto-enols as pesticides and herbicides” (Bayer Aktiengesellschaft, priority 1997, dated 2003).

Experiments:
[1] = system: larvae of the green rice leaf hoppers (Nepliotettix cincticeps); experiment: Nephotettix-Test (rice seedlings dipped); type: in vivo, Nephotettix cincticeps; conditions: active compound concentration of 0.1%, after 6 days
Experimental: Solvent: 7 parts by weight dimethylformamide
(§1) Emulsifier: 1 part by weight of alkylaryl polyglycol ether
(§2) To produce a suitable preparation of active compound, 1 part by weight of active compound is mixed with the stated amount of solvent and the stated amount of emulsifier, and the concentrate is diluted with water to the desired concentration.
Rice seedlings (Oryza sativa) are treated by being dipped into the preparation of active compound of the desired concentration and populated with larvae of the green rice leaf hoppers (Nepliotettix cincticeps) while the seedlings are still moist.
After the desired period of time, the kill in % is determined. 100% means that all leaf hoppers have been killed, 0% means that none of the leaf hoppers have been killed.

[2] = system: greenhouse spider mite (Tetranychus urticae); experiment: Tetranychus-Test (OP-resistant/dipped Treatment); type: in vivo; conditions: active compound concentration of 0.01%, after 7 days
Experimental: Tetranychus-Test (OP-resistant/dipped Treatment)
(§3) Solvent: 3 parts by weight of dimethylformamide
as §1, §2
Bean plants (Phaseolus vulgaris), which are heavily infested by all stages of the greenhouse spider mite (Tetranychus urticae) are dipped into a preparation of active compound of the desired concentration.
After the desired period of time, the activity in % is determined. 100% means that all spider mites have been killed, 0% means that none of the spider mites have been killed.

[3] = system: peach affids (Myzus persicae); experiment: Myzus-Test (cabbage leaves dipped); type: in vivo; conditions: active compound concentration of 0.1%, after 6 days
Experimental: (§4) Solvent: 7 parts by weight of dimethylformamide
as §1, §2
Cabbage leaves (Brassica oleracea), which are heavily infested by peach affids (Myzus persicae) are treated by being dipped into the preparation of active compound of the desired concentration.
After the desired period of time, the kill in per cent is determined. 100% means that all affids have been killed; 0% means that none of the affids have been killed.

[4] = system: larvae of the mustard beetle (Phaedon cochleariae); experiment: Phaedon-Larvae-Test (cabbage leaves dipped); type: in vivo; conditions: active compound concentration of 0.1%, after 7 days
Experimental: as §4, §1, §2
After the desired period of time, the kill in % was determined. 100% means that all beetle larvae have been killed, 0% means that none of the beetle larvae have been killed.

Lucilia cuprina-Larvae = experiment: Blowfly-Larvae-Test/Development-inhibitory Action; type: in vivo; conditions: active compound concentration of 1000 ppm, read-out: activity (inhibition of fly emergence)
Experimental: Blowfly-Larvae-Test/Development-inhibitory Action
Test animals: Lucilia cuprina-Larvae
Solvent: dimethyl sulphoxide
20 mg of active compound are dissolved in 1 ml of dimethyl sulphoxide, more dilute concentrations are prepared by dilution with distilled H2O.
Approximately 20 Lucilia cuprina larvae are introduced into a test tube which contains approximately 1 cm^3 of horse meat and 0.5 ml of the preparation of active compound to be tested. After 24 and 48 hours, the efficacy of the preparation of active compound is determined. The test tubes are transferred into beakers whose bottom is covered with sand. After a further 2 days, the test tubes are removed, and the pupae are counted.
The activity of the preparation of active compound is assessed by the number of flies which have emerged after 1.5 times the development time of an untreated control. 100% means that no flies have emerged; 0% means that all the flies have emerged normally.

[5] = system: caterpillars of the owlet moth (Spodoptera frugiperda); experiment: Spodoptera Frugiperda-Test (cabbage leaves dipped); type: in vivo; conditions: active compound concentration of 0.1%, after 7 days
Experimental: Spodoptera Frugiperda-Test
as §4, §1, §2
Cabbage leaves (Brassica oleracea) are treated by being dipped into the preparation of active compound of the desired concentration and populated with caterpillars of the owlet moth (Spodoptera frugiperda) while the leaves are still moist.
After the desired period of time, the kill in % is determined. 100%, means that all caterpillars have been killed; 0% means that none of the caterpillars have been killed.

[6] = system: fruit tree red spider mite (Panonychus ulmi); experiment: Panonychus-Test (plum trees sprayed); type: in vivo; conditions: active compound concentration of 0.02%, after 7 days
Experimental: as §3, §1
To produce a suitable preparation of active compound, 1 part by weight of active compound is mixed with the stated amount of solvent and the stated amount of emulsifier, and the concentrate is diluted with emulsifier-containing water to the desired concentration.
Plum trees (Prunus domestica), of a height of approximately 30 cm which are heavily infested by all development stages of the fruit tree red spider mite (Panonychus ulmi) are sprayed with a preparation of active compound of the desired concentration.
After the desired period of time, the effect in % is determined. 100% means that all spider mites have been killed, 0% means that none of the spider mites have been killed.

CON=C1CCC2(CC1)OC(=O)C(c1c(C)cc(C)cc1C)=C2O (centres unmarked) [Example I-2-a-2]
100%: kill [1] | kill [2]

CON=C1CCC2(CC1)OC(=O)C(c1c(C)cc(C)cc1C)=C2OC(=O)C(C)(C)C (centres unmarked) [Example I-2-b-2]
100%: kill [3] | kill [4] | inhibition at 1000 ppm (Lucilia cuprina-Larvae) | kill [5] | effect (spider mites killed) [6] | kill [2]
